Laboratory results reported in patent US10351546B2, “Pyridin-3-yl acetic acid derivatives as inhibitors of human immunodeficiency virus replication” (priority 2015, dated 2019).
Where two headings read alike, the source gives them in different places.

System: NL-RLuc virus
Test: Inhibition of HIV replication (NL-RLuc luciferase reporter virus in MT-2 cells)
Type: cell-based
Conditions: Human immunodeficiency virus 1, MT2, 120 h
Method in brief: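 MT-2 cells were infected with NL4-3-derived virus carrying Renilla luciferase in place of part of nef, in RPMI/10% FBS, with serial compound dilutions. Luciferase read after 5 days of multicycle replication. EC50 from the median effect equation, at least 2 experiments.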

| Compound | EC50 (read-out: Activity) | EC50 (read-out: EC50 μM) |
| --- | --- | --- |
| Cc1nc(CN(C)CC2CCOCC2)c(-c2ccc(OCCc3ccc(F)cc3)cc2)c(N2CCC(C)(C)CC2)c1[C@H](OC(C)(C)C)C(=O)O [Example 84, (S)-2-(tert-Butoxy)-2-(4-(4,4-dimethylpiperidin-1-yl)-5-(4-(4-fluorophenethoxy)phenyl)-2-methyl-6-((methyl((tetrahydro-2H-pyran-4-yl)methyl)amino)methyl)pyridin-3-yl)acetic acid] | < 0.1 µM |  |
| Cc1nc(Cc2ccc(F)cc2)c(-c2ccc(OCCc3ccc(F)cc3)cc2)c(N2CCC(C)(C)CC2)c1[C@H](OC(C)(C)C)C(=O)O [Example 170, (S)-2-(tert-Butoxy)-2-(4-(4,4-dimethylpiperidin-1-yl)-6-(4-fluorobenzyl)-5-(4-(4-fluorophenethoxy)phenyl)-2-methylpyridin-3-yl)acetic acid] | < 0.1 µM |  |
| Cc1nc(CN2CCCCC2)c(-c2ccc(OCCc3ccc(F)cc3)cc2)c(N2CCC(C)(C)CC2)c1[C@H](OC(C)(C)C)C(=O)O [Example 80, (S)-2-(tert-Butoxy)-2-(4-(4,4-dimethylpiperidin-1-yl)-5-(4-(4-fluorophenethoxy)phenyl)-2-methyl-6-(piperidin-1-ylmethyl)pyridin-3-yl)acetic acid] | < 0.1 µM |  |
| Cc1nc(CNCCO)c(-c2ccc(OCCc3ccc(F)cc3)cc2)c(N2CCC(C)(C)CC2)c1[C@H](OC(C)(C)C)C(=O)O [Example 69, (S)-2-(tert-Butoxy)-2-(4-(4,4-dimethylpiperidin-1-yl)-5-(4-(4-fluorophenethoxy)phenyl)-6-(((2-hydroxyethyl)amino)methyl)-2-methylpyridin-3-yl)acetic acid] | < 0.1 µM |  |
| Cc1cc(F)ccc1CN1CCc2cc(-c3c(CN4CCC(C)(C)CC4)nc(C)c([C@H](OC(C)(C)C)C(=O)O)c3N3CCC(C)(C)CC3)ccc2C1 [Example 120, (S)-2-(tert-Butoxy)-2-(4-(4,4-dimethylpiperidin-1-yl)-6-((4,4-dimethylpiperidin-1-yl)methyl)-5-(2-(4-fluoro-2-methylbenzyl)-1,2,3,4-tetrahydroisoquinolin-6-yl)-2-methylpyridin-3-yl)acetic acid] | < 0.1 µM |  |
| COCCNCc1nc(C)c([C@H](OC(C)(C)C)C(=O)O)c(N2CCC(C)(C)CC2)c1-c1ccc2c(c1)CCN(Cc1ccc(F)cc1C)C2 [Example 116, (S)-2-(tert-Butoxy)-2-(4-(4,4-dimethylpiperidin-1-yl)-5-(2-(4-fluoro-2-methylbenzyl)-1,2,3,4-tetrahydroisoquinolin-6-yl)-6-(((2-methoxyethyl)amino)methyl)-2-methylpyridin-3-yl)acetic acid] | < 0.1 µM |  |
| Cc1cc(F)ccc1CN1CCc2cc(-c3c(CNCc4ccncc4)nc(C)c([C@H](OC(C)(C)C)C(=O)O)c3N3CCC(C)(C)CC3)ccc2C1 [Example 124, (S)-2-(tert-Butoxy)-2-(4-(4,4-dimethylpiperidin-1-yl)-5-(2-(4-fluoro-2-methylbenzyl)-1,2,3,4-tetrahydroisoquinolin-6-yl)-2-methyl-6-(((pyridin-4-ylmethyl)amino)methyl)pyridin-3-yl)acetic acid] | < 0.1 µM |  |
| Cc1cc(F)ccc1CN1CCc2cc(-c3c(CN)nc(C)c([C@H](OC(C)(C)C)C(=O)O)c3N3CCC(C)(C)CC3)ccc2C1 [Example 139, (S)-2-(6-(Aminomethyl)-4-(4,4-dimethylpiperidin-1-yl)-5-(2-(4-fluoro-2-methylbenzyl)-1,2,3,4-tetrahydroisoquinolin-6-yl)-2-methylpyridin-3-yl)-2-(tert-butoxy)acetic acid] | < 0.1 µM |  |
| Cc1nc(CCCN(C)C)c(-c2ccc(OCCc3ccc(F)cc3)cc2)c(N2CCC(C)(C)CC2)c1[C@H](OC(C)(C)C)C(=O)O [Example 59, (S)-2-(tert-Butoxy)-2-(6-(3-(dimethylamino)propyl)-4-(4,4-dimethylpiperidin-1-yl)-5-(4-(4-fluorophenethoxy)phenyl)-2-methylpyridin-3-yl)acetic acid] | < 0.1 µM |  |
| COCCc1nc(C)c([C@H](OC(C)(C)C)C(=O)O)c(N2CCC(C)(C)CC2)c1-c1ccc(OCCc2ccc(F)cc2)cc1 [Example 58, (S)-2-(tert-butoxy)-2-(4-(4,4-dimethylpiperidin-1-yl)-5-(4-(4-fluorophenethoxy)phenyl)-6-(2-methoxyethyl)-2-methylpyridin-3-yl)acetic acid] | < 0.1 µM |  |
| Cc1nc(N)c(-c2ccc3c(c2)CCN(c2ncnc4c2oc2ccccc24)C3)c(N2CCC(C)(C)CC2)c1[C@H](OC(C)(C)C)C(=O)O [Example 167, (S)-2-(6-amino-5-(2-(benzofuro[3,2-d]pyrimidin-4-yl)-1,2,3,4-tetrahydroisoquinolin-6-yl)-4-(4,4-dimethylpiperidin-1-yl)-2-methylpyridin-3-yl)-2-(tert-butoxy)acetic acid] | < 0.1 µM |  |
| Cc1nc(COc2ccc(Cl)cc2)c(-c2ccc(OCCc3ccc(F)cc3)cc2)c(N2CCC(C)(C)CC2)c1[C@H](OC(C)(C)C)C(=O)O [Example 6, (S)-2-(tert-butoxy)-2-(6-((4-chlorophenoxy)methyl)-4-(4,4-dimethylpiperidin-1-yl)-5-(4-(4-fluorophenethoxy)phenyl)-2-methylpyridin-3-yl)acetic acid] | < 0.1 µM | 0.02 µM |
| CC(=O)N(C)Cc1nc(C)c([C@H](OC(C)(C)C)C(=O)O)c(N2CCC(C)(C)CC2)c1-c1ccc(OCCc2ccc(F)cc2)cc1 [Example 101, (S)-2-(tert-Butoxy)-2-(4-(4,4-dimethylpiperidin-1-yl)-5-(4-(4-fluorophenethoxy)phenyl)-2-methyl-6-((N-methylacetamido)methyl)pyridin-3-yl)acetic acid] | < 0.1 µM |  |
| Cc1nc(CO)c(-c2ccc(OCCc3ccc(F)cc3)cc2)c(N2CCC(C)(C)CC2)c1[C@H](OC(C)(C)C)C(=O)O [Example 2, (S)-2-(tert-Butoxy)-2-(4-(4,4-dimethylpiperidin-1-yl)-5-(4-(4-fluorophenethoxy)phenyl)-6-(hydroxymethyl)-2-methylpyridin-3-yl)acetic acid] | < 0.1 µM |  |
| Cc1cc(F)ccc1CN1CCc2cc(-c3c(Cn4cnnc4C)nc(C)c([C@H](OC(C)(C)C)C(=O)O)c3N3CCC(C)(C)CC3)ccc2C1 [Example 146, (S)-2-(tert-butoxy)-2-(4-(4,4-dimethylpiperidin-1-yl)-5-(2-(4-fluoro-2-methylbenzyl)-1,2,3,4-tetrahydroisoquinolin-6-yl)-2-methyl-6-((3-methyl-4H-1,2,4-triazol-4-yl)methyl)pyridin-3-yl)acetic acid] | < 0.1 µM |  |
| Cc1ncn(Cc2nc(C)c([C@H](OC(C)(C)C)C(=O)O)c(N3CCC(C)(C)CC3)c2-c2ccc(OCCc3ccc(F)cc3)cc2)n1 [Example 31, (S)-2-(tert-Butoxy)-2-(4-(4,4-dimethylpiperidin-1-yl)-5-(4-(4-fluorophenethoxy)phenyl)-2-methyl-6-((3-methyl-1H-1,2,4-triazol-1-yl)methyl)pyridin-3-yl)acetic acid] | < 0.1 µM | 0.009 µM |
| Cc1nc(/C=C/COC(C)C)c(-c2ccc(OCCc3ccc(F)cc3)cc2)c(N2CCC(C)(C)CC2)c1[C@H](OC(C)(C)C)C(=O)O [Example 54, (S,E)-2-(tert-Butoxy)-2-(4-(4,4-dimethylpiperidin-1-yl)-5-(4-(4-fluorophenethoxy)phenyl)-6-(3-isopropoxyprop-1-en-1-yl)-2-methylpyridin-3-yl)acetic acid] | < 0.1 µM |  |
| Cc1cc(F)ccc1CN1CCc2cc(-c3c(COCC4COC4)nc(C)c([C@H](OC(C)(C)C)C(=O)O)c3N3CCC(C)(C)CC3)ccc2C1 [Example 154, (S)-2-(tert-Butoxy)-2-(4-(4,4-dimethylpiperidin-1-yl)-5-(2-(4-fluoro-2-methylbenzyl)-1,2,3,4-tetrahydroisoquinolin-6-yl)-2-methyl-6-((oxetan-3-ylmethoxy)methyl)pyridin-3-yl)acetic acid] | < 0.1 µM |  |
| Cc1nc(-c2ncc(Cc3ccc(F)cc3)o2)c(-c2ccc(OCCc3ccc(F)cc3)cc2)c(N2CCC(C)(C)CC2)c1[C@H](OC(C)(C)C)C(=O)O [Example 45, (S)-2-(tert-Butoxy)-2-(4-(4,4-dimethylpiperidin-1-yl)-6-(5-(4-fluorobenzyl)oxazol-2-yl)-5-(4-(4-fluorophenethoxy)phenyl)-2-methylpyridin-3-yl)acetic acid] | < 0.1 µM |  |
| Cc1nc(-c2cn(C)nn2)c(-c2ccc(OCCc3ccc(F)cc3)cc2)c(N2CCC(C)(C)CC2)c1[C@H](OC(C)(C)C)C(=O)O [Example 169, (S)-2-(tert-butoxy)-2-(4-(4,4-dimethylpiperidin-1-yl)-5-(4-(4-fluorophenethoxy)phenyl)-2-methyl-6-(1-methyl-1H-1,2,3-triazol-4-yl)pyridin-3-yl)acetic acid] | < 0.1 µM |  |
| CCOCCOCc1cc(N2CCC(C)(C)CC2)c([C@H](OC(C)(C)C)C(=O)O)c(C)n1 [Example 35, (S)-2-(tert-butoxy)-2-(4-(4,4-dimethylpiperidin-1-yl)-6-((2-ethoxyethoxy)methyl)-2-methylpyridin-3-yl)acetic acid] | 0.1 to 1 µM | 0.316 µM |
| Cc1nc(COCc2cccc(Cl)c2)c(-c2ccc(OCCc3ccc(F)cc3)cc2)c(N2CCC(C)(C)CC2)c1[C@H](OC(C)(C)C)C(=O)O [Example 16, (S)-2-(tert-Butoxy)-2-(6-(((3-chlorobenzyl)oxy)methyl)-4-(4,4-dimethylpiperidin-1-yl)-5-(4-(4-fluorophenethoxy)phenyl)-2-methylpyridin-3-yl)acetic acid] | < 0.1 µM |  |
| Cc1nc(COCC2CC(F)(F)C2)c(-c2ccc(OCCc3ccc(F)cc3)cc2)c(N2CCC(C)(C)CC2)c1[C@H](OC(C)(C)C)C(=O)O [Example 30, (S)-2-(tert-Butoxy)-2-(6-(((3,3-difluorocyclobutyl)methoxy)methyl)-4-(4,4-dimethylpiperidin-1-yl)-5-(4-(4-fluorophenethoxy)phenyl)-2-methylpyridin-3-yl)acetic acid] | < 0.1 µM |  |
